Assay results: US20220117964A1, “COMBINATION OF FAK INHIBITOR AND BTK INHIBITOR FOR TREATING A DISEASE” (ASCENTAGE PHARMA (SUZHU) CO., LTD., priority 2019, published 2022)

Experiments:
Format in all cases: cell-based
[1] = system: phosphorylated-AKT (p-AKT, Ser397); assay: Western blot, KYSE-150 and KYSE-520 cells; settings: KYSE-150 (1 μM Compound 5, 1 μM Ibrutinib) and KYSE-520 (1 μM Compound 5, 0.5 μM Ibrutinib), 24 hours
Description: The cells were lysed on ice with 1× cell lysis buffer containing 1% protease inhibitor (PMSF) and 1% phosphokinase inhibitor for 30 minutes, centrifuged at 12000 rpm and 4° C. for 15 minutes, and the supernatant protein lysate was collected. The protein concentration was measured by BCA protein concentration detection kit. The cell protein lysates (20 to 50 μg) were separated using 8-12% SDS-PAGE electrophoresis. The separated proteins were transferred to a PVDF membrane. The PVDF membrane was blocked with 5% BSA buffer at room temperature for 30 minutes to 1 hour, and then incubated overnight on a 4° C. shaker with 1× TBST containing primary antibody. The redundant primary antibody was eluted, and the membrane was washed 3 times with 1× TBST, 5 to 10 minutes for each time. The protein band membrane was incubated with horseradish peroxidase-labeled secondary antibody dilution for 1 hour at room temperature, and the membrane was washed 3 times with 1× TBST, 5 to 10 minutes for each time. The signal generation and detection were performed using an ECL chemiluminescence ultrasensitive colorimetric kit and a chemiluminescence imaging system. […]
(§1) (1) The experimental method was as described in the items (1), (2), (5) of Example 2. […] The changes in signaling pathway of related proteins were determined by Western blotting assay.

KYSE-510 = assay: CCK-8 cell viability assay; settings: Homo sapiens; KYSE-510 cells, CCK-8, 72 hours; read-out: IC50, proliferation inhibition
Description: (§2) Cell viability was measured using Cell Counting Kit-8 (Dojindo, Japan) according to the manufacturer's instructions. In short, cells were inoculated in a 96-well plate at 3000 to 4000 cells/well in the presence of a single drug or a combination of drugs for 72 hours. After 72 hours, CCK-8 reagent (10 μL/well) was added and incubated at 37° C. for 1-2 hours, and absorbance readings at 450 nm were obtained. The IC50 values were calculated by using GraphPad Prism version 6.0.0 (GraphPad Software, San Diego, Calif. USA) for Windows. […] The expression difference of FAK gene between normal esophageal tissue and esophageal cancer tissue was determined by analyzing the TCGA database source information in the GEPIA database (http://gepia.cancer-pku.cn/), and the correlation between the FAK gene and the EGFR gene in esophageal cancer was determined by analyzing the TCGA database source information using the Pearson test. The basic protein expression levels for the following proteins in 6 esophageal cancer cell lines (TE-10, TE-1, YES-2, KYSE-520, KYSE-510, KYSE-150) were detected by Western blot method: […]

TE-10 = assay: CCK-8 cell viability assay; settings: Homo sapiens; TE-10 cells, CCK-8, 72 hours; read-out: IC50, proliferation inhibition
Description: as §2

TE-1 = assay: CCK-8 cell viability assay; settings: Homo sapiens; TE-1 cells, CCK-8, 72 hours; read-out: IC50, proliferation inhibition
Description: as §2

[2] = system: phosphorylated-FAK (p-FAK, Tyr397); assay: Western blot, KYSE-150 and KYSE-520 cells; settings: KYSE-150 (1 μM Compound 5, 1 μM Ibrutinib) and KYSE-520 (1 μM Compound 5, 0.5 μM Ibrutinib), 24 hours
Description: (§3) The cells were lysed on ice with 1× cell lysis buffer containing 1% protease inhibitor (PMSF) and 1% phosphokinase inhibitor for 30 minutes, centrifuged at 12000 rpm and 4° C. for 15 minutes, and the supernatant protein lysate was collected. The protein concentration was measured by BCA protein concentration detection kit. The cell protein lysates (20 to 50 μg) were separated using 8-12% SDS-PAGE electrophoresis. The separated proteins were transferred to a PVDF membrane. The PVDF membrane was blocked with 5% BSA buffer at room temperature for 30 minutes to 1 hour, and then incubated overnight on a 4° C. shaker with 1× TBST containing primary antibody. The redundant primary antibody was eluted, and the membrane was washed 3 times with 1× TBST, 5 to 10 minutes for each time. The protein band membrane was incubated with horseradish peroxidase-labeled secondary antibody dilution for 1 hour at room temperature, and the membrane was washed 3 times with 1× TBST, 5 to 10 minutes for each time. The signal generation and detection were performed using an ECL chemiluminescence ultrasensitive colorimetric kit and a chemiluminescence imaging system. The primary antibodies used in this experiment included: EGFR, (CST, Cat.4267S); phosphorylated EGFR (p-EGFR (Tyr1068)), (CST, Cat.3777T); FAK, (CST, Cat.3285S); phosphorylated FAK (p-FAK (Tyr397)), (CST, Cat.8556T); AKT, (CST, Cat.4685S); phosphorylated p-AKT (Ser473), (CST, Cat.9271S); ERK, (CST,Cat.4695S); phosphorylated ERK (p-ERK (Thr202/Tyr204)), (CST, Cat.4370T); phosphorylated MEK (p-MEK (Ser217/221)), (CST, Cat.9121S);BTK, (Immunoway, Cat. YM1294); C-Myc, (CST, Cat. 5605); phosphorylated C-Myc, (CST, Cat. 13748); Cyclin B1 (CST, Cat. 12231S), Cylin D1 (CST, Cat.2978S), GAPDH (ABGENT, Cat.AM1020B). The secondary antibodies used in this experiment included goat-anti-rabbit secondary antibody (Senta, Cat. Sc-2004) and goat-anti-mouse secondary antibody (Senta, Cat. Sc-2005).
as §1

Cyclin D1 = assay: Western blot, KYSE-150 and KYSE-520 cells; settings: KYSE-150 (1 μM Compound 5, 1 μM Ibrutinib) and KYSE-520 (1 μM Compound 5, 0.5 μM Ibrutinib), 24 hours
Description: as §3, §1

Cyclin B1 = assay: Western blot, KYSE-150 and KYSE-520 cells; settings: KYSE-150 (1 μM Compound 5, 1 μM Ibrutinib) and KYSE-520 (1 μM Compound 5, 0.5 μM Ibrutinib), 24 hours
Description: as §3, §1

[3] = system: phosphorylated EGFR (p-EGFR, Tyr1068); assay: Western blot, KYSE-150 and KYSE-520 cells; settings: KYSE-150 (1 μM Compound 5, 1 μM Ibrutinib) and KYSE-520 (1 μM Compound 5, 0.5 μM Ibrutinib), 24 hours
Description: as §3, §1

[4] = system: phosphorylated MEK (p-MEK, Ser217/221); assay: Western blot, KYSE-150 and KYSE-520 cells; settings: KYSE-150 (1 μM Compound 5, 1 μM Ibrutinib) and KYSE-520 (1 μM Compound 5, 0.5 μM Ibrutinib), 24 hours
Description: as §3, §1

[5] = system: phosphorylated ERK (p-ERK, Thr202/Tyr204); assay: Western blot, KYSE-150 and KYSE-520 cells; settings: KYSE-150 (1 μM Compound 5, 1 μM Ibrutinib) and KYSE-520 (1 μM Compound 5, 0.5 μM Ibrutinib), 24 hours
Description: as §3, §1

| SMILES | protein expression level of phosphorylated-AKT (p-AKT, Ser397) [1] | IC50 (KYSE-510) | IC50 (TE-10) | IC50 (TE-1) | protein expression level of phosphorylated-FAK (p-FAK, Tyr397) [2] | protein expression level of Cyclin D1 (Cyclin D1) | protein expression level of Cyclin B1 (Cyclin B1) | protein expression level of phosphorylated EGFR (p-EGFR, Tyr1068) [3] | protein expression level of phosphorylated MEK (p-MEK, Ser217/221) [4] | protein expression level of phosphorylated ERK (p-ERK, Thr202/Tyr204) [5] |
| --- | --- | --- | --- | --- | --- | --- | --- | --- | --- | --- |
| Cc1cc(Nc2ncc(Cl)c(Nc3ccccc3S(=O)(=O)C(C)C)n2)c(OC(C)C)cc1C1=CCN(C2CCOCC2)CC1 [Compound 5, 5-chloro-N^2-(2-isopropoxy-5-methyl-4-(1-(tetrahydro-2H-pyran-4-yl)-1,2,3,6-tetrahydropyridin-4-yl)phenyl)-N^4-(2-(isopropylsulfonyl)phenyl)pyrimidine-2,4-diamine] | significantly decrease | 2270 nM | 2600 nM | 2210 nM | significantly decrease | – | – | – | – | – |
| C=CC(=O)N1CCC[C@@H](n2nc(-c3ccc(Oc4ccccc4)cc3)c3c(N)ncnc32)C1 [Ibrutinib] | – | 4420 nM | 3010 nM | 9880 nM | – | significantly decrease | significantly decrease | significantly decrease | significantly decrease | significantly decrease |
